Experimental data: patent US20260306640A1, “TECHNOLOGIES TARGETING CELL STATES” (Auron Therapeutics, Inc., priority 2023, published 2026)

Each compound was assayed against KAT2A (Homo sapiens, UniProt Q92830) (assay: KAT2A degradation, Western Blot (Jess), MOLM-13 cells). Details: MOLM-13 cells, KAT2A, 24 h, Western Blot, vs DMSO; read-out: KAT2A MOLM-13 DC50.
Assay type: cell-based
Parameters: degrader, Western blot
Procedure: MOLM-13 cells or NCI-H1048 cells were used for Western Blot analysis of KAT2A degradation. KAT2B degradation can be measured in a similar manner with NCI-H1048 cells.
MOLM-13 cells were maintained at 37° C. in 5% CO2 and 90% humidity in RPMI 1640 supplemented with 20% fetal bovine serum (FBS) and 1× penicillin/streptomycin. Cells were plated in full media at 1-2 million cells/2 mL in a 6-well tissue culture treated plate with or without compounds for 24 h at 37° C. in 5% CO2.
MOLM-13 cells or NCI-H1048 cells were washed with PBS, then lysed with RIPA buffer containing 1×protease and phosphatase inhibitors (SantaCruz Biotechnologies Cat #sc-24948A). Protein was isolated by centrifugation at 12,000×g for 10 minutes at 4° C. and supernatant was collected. Protein was quantified via Bradford assay. Samples were diluted to 4 μg lysate in 16 μL RIPA buffer and then 4 μL of Jess Sample Buffer. Samples were heated at 95° C. for 5 minutes. Samples were loaded onto 12-230 kDa Jess™ Separation Module, 8×25 capillary cartridges (SM-W004, Biotechne). Antibodies loaded were: Primary antibody for KAT2A (GCN5L2 (C26A10) Rabbit mAb (3305, CST)) and for KAT2B (PCAF (C14G9)) Rabbit mAb (3378, CST) at 1:1000 and Anti-Rabbit Detection Module for Jess™ (Cat No #DM-001, Biotechne). Signal was detected by chemiluminescence.
DC50 values were determined from percent reduction of protein as compared to the DMSO control.

Sequence of KAT2A (Q92830 whole entry): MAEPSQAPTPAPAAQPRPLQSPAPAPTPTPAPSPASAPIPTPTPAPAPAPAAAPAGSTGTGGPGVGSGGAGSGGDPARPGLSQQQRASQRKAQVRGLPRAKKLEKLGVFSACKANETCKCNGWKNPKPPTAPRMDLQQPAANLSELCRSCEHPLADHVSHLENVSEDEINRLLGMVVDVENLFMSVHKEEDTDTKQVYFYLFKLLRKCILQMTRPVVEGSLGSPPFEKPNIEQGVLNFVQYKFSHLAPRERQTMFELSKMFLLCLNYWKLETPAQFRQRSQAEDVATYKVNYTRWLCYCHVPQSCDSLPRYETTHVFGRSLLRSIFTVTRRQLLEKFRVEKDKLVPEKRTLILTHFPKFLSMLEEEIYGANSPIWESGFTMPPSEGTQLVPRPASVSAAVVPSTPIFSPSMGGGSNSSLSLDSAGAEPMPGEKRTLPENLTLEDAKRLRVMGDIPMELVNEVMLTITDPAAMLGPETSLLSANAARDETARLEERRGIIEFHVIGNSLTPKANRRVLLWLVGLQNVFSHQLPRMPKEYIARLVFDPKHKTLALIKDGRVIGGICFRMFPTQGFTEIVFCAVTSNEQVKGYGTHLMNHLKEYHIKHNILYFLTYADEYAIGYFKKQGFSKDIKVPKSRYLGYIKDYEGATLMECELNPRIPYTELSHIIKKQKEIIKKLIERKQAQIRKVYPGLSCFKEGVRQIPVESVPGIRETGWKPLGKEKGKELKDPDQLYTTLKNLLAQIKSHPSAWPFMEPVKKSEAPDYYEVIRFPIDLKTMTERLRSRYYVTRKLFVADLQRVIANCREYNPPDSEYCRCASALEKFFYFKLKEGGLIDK

Row | DC50 [nM] | Structure (SMILES)
1 | 1 to 30 | CN1C[C@H](Nc2cnn(C)c(=O)c2Cl)C[C@H](c2ccc(CN3CCN(c4ccc(C5CCC(=O)NC5=O)cc4)CC3)cc2)C1 (stereo partly drawn) [Compound 104]
2 | 1 to 30 | CN1C[C@H](Nc2ccn(C)c(=O)c2Cl)C[C@H](c2ccc(COc3ccc4c(c3)C(=O)N(C3CCC(=O)NC3=O)C4=O)cc2)C1 (stereo partly drawn) [Compound 105]
3 | < 1 | CN1C[C@H](Nc2cnn(C)c(=O)c2Br)C[C@H](c2ccc(CNc3ccc4c(c3)C(=O)N(C3CCC(=O)NC3=O)C4=O)cc2)C1 (stereo partly drawn) [Compound 106]
4 | < 1 | CN1C[C@H](Nc2cnn(C)c(=O)c2Br)C[C@H](c2ccc(CN3CCC4(CC3)CN(c3ccc5c(c3)C(=O)N(C3CCC(=O)NC3=O)C5=O)C4)cc2)C1 (stereo partly drawn) [Compound 108]
5 | < 1 | CN1C[C@H](Nc2cnn(C)c(=O)c2Br)C[C@H](c2ccc(CN3CCC4(CCN(c5ccc6c(c5)C(=O)N(C5CCC(=O)NC5=O)C6=O)C4)C3)cc2)C1 (stereo partly drawn) [Compound 109]
6 | < 1 | CN1C[C@H](Nc2cnn(C)c(=O)c2Br)C[C@H](c2ccc(COC3CN(c4ccc5c(c4)C(=O)N(C4CCC(=O)NC4=O)C5=O)C3)cc2)C1 (stereo partly drawn) [Compound 117]
7 | < 1 | CN1C[C@H](Nc2cnn(C)c(=O)c2Br)C[C@H](c2ccc(C(=O)N3CCC4(CCN(CC5CCN(c6ccc7c(c6)C(=O)N(C6CCC(=O)NC6=O)C7=O)CC5)C4)C3)cc2)C1 (stereo partly drawn) [Compound 118]
8 | 1 to 30 | Cc1ccc(OC2CCN(C(=O)c3ccc([C@H]4C[C@@H](Nc5cnn(C)c(=O)c5Br)CN(C)C4)cc3)CC2)cc1C1CCC(=O)NC1=O (stereo partly drawn) [Compound 121]
9 | 1 to 30 | CN1C[C@H](Nc2cnn(C)c(=O)c2C2CC2)C[C@H](c2ccc(CN3CCC(c4ccc5c(c4)CN(C4CCC(=O)NC4=O)C5=O)CC3)cc2)C1 (stereo partly drawn) [Compound 129]

Second part, the compound before the results:

Row | Structure (SMILES) | DC50 [nM]
10 | CN1C[C@H](Nc2cnn(C)c(=O)c2Br)C[C@H](c2ccc(CNC3CN(c4ccc(C5CCC(=O)NC5=O)cc4)C3)cc2)C1 (stereo partly drawn) [Compound 103] | < 1
11 | CN1C[C@H](Nc2cnn(C)c(=O)c2Br)C[C@H](c2ccc(C(=O)N3CCC(CN4CCC(c5ccc6c(c5)C(=O)N(C5CCC(=O)NC5=O)C6=O)CC4)CC3)cc2)C1 (stereo partly drawn) [Compound 107] | < 1
12 | CN1C[C@H](Nc2cnn(C)c(=O)c2Br)C[C@H](c2ccc(C(=O)N3CCN(CC4CCN(c5ccc6c(c5)C(=O)N(C5CCC(=O)NC5=O)C6=O)CC4)CC3)cc2)C1 (stereo partly drawn) [Compound 111] | < 1
13 | CN1C[C@H](Nc2cnn(C)c(=O)c2Br)C[C@H](c2ccc(C(=O)N3CCC(F)(CN4CCN(c5ccc6c(c5)C(=O)N(C5CCC(=O)NC5=O)C6=O)CC4)CC3)cc2)C1 (stereo partly drawn) [Compound 112] | < 1
14 | CN1C[C@H](Nc2cnn(C)c(=O)c2Br)C[C@H](c2ccc(CN3CCC(c4ccc5c(c4)CN(C4CCC(=O)NC4=O)C5=O)C3)cc2)C1 (stereo partly drawn) [Compound 113] | < 1
15 | CN1C[C@H](Nc2cnn(C)c(=O)c2Br)C[C@H](c2ccc(C(=O)N3CCC(c4ccc(NC5CCC(=O)NC5=O)cc4)CC3)cc2)C1 (stereo partly drawn) [Compound 115] | < 1
16 | CN1C[C@H](Nc2cnn(C)c(=O)c2Br)C[C@H](c2ccc(CN3CCN(c4cccc5c4CN(C4CCC(=O)NC4=O)C5=O)CC3)cc2)C1 (stereo partly drawn) [Compound 116] | < 1
17 | CN1C[C@H](Nc2cnn(C)c(=O)c2Br)C[C@H](c2ccc(C(=O)N3CCC(Oc4cccc(C5CCC(=O)NC5=O)c4)CC3)cc2)C1 (stereo partly drawn) [Compound 119] | 1 to 30
18 | Cc1ccc(OC2CCN(Cc3ccc([C@H]4C[C@@H](Nc5cnn(C)c(=O)c5Br)CN(C)C4)cc3)CC2)cc1C1CCC(=O)NC1=O (stereo partly drawn) [Compound 122] | 1 to 30
19 | CN1C[C@H](Nc2cnn(C)c(=O)c2Br)C[C@H](c2ccc(CN3CCC4(CC3)CN(c3cccc(C5CCC(=O)NC5=O)c3)C4)cc2)C1 (stereo partly drawn) [Compound 127] | 1 to 30
20 | CN1C[C@H](Nc2cnn(C)c(=O)c2Br)C[C@H](c2ccc(C(=O)N3CCC4(CC3)CN(c3cccc(C5CCC(=O)NC5=O)c3)C4)cc2)C1 (stereo partly drawn) [Compound 128] | 1 to 30
21 | CN1C[C@H](Nc2cnn(C)c(=O)c2Br)C[C@H](c2ccc(CN3CCC(c4ccc5c(c4)C(=O)N(C4CCC(=O)NC4=O)C5=O)C3)cc2)C1 (stereo partly drawn) [Compound 130] | 1 to 30
